According to ChEMBL document CHEMBL4834484, “Identification of isoform/domain-selective fragments from the selection of DNA-encoded dynamic library” (Bioorg Med Chem, 2021):

Assays:
[1] = target: T1, NAD-dependent protein deacetylase sirtuin-2 (Homo sapiens, UniProt Q8IXJ6); experiment: Inhibition of human recombinant SIRT2 assessed as inhibition of substrate deacetylation using Gln-Pro-Lys-Lys- (epsilon acetyl) AMC peptide as substrate in presence of NAD+ measured by fluorescence based analysis
T1 sequence (Q8IXJ6 whole entry): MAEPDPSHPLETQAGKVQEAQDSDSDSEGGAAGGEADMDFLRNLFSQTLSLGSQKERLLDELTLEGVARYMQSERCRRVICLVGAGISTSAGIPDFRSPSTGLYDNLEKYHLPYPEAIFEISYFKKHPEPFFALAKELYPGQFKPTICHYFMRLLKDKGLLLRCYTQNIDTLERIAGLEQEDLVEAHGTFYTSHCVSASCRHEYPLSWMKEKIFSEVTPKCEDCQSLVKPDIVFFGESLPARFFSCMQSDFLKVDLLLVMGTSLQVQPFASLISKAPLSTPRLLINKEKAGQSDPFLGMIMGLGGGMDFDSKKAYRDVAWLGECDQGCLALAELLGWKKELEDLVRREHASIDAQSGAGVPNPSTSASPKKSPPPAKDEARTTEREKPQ

[2] = target: T2, NAD-dependent protein deacetylase sirtuin-1 (Homo sapiens, UniProt Q96EB6); experiment: Inhibition of human recombinant SIRT1 assessed as inhibition of substrate deacetylation using Gln-Pro-Lys-Lys- (epsilon acetyl) AMC peptide as substrate in presence of NAD+ measured by fluorescence based analysis
T2 sequence (Q96EB6 whole entry): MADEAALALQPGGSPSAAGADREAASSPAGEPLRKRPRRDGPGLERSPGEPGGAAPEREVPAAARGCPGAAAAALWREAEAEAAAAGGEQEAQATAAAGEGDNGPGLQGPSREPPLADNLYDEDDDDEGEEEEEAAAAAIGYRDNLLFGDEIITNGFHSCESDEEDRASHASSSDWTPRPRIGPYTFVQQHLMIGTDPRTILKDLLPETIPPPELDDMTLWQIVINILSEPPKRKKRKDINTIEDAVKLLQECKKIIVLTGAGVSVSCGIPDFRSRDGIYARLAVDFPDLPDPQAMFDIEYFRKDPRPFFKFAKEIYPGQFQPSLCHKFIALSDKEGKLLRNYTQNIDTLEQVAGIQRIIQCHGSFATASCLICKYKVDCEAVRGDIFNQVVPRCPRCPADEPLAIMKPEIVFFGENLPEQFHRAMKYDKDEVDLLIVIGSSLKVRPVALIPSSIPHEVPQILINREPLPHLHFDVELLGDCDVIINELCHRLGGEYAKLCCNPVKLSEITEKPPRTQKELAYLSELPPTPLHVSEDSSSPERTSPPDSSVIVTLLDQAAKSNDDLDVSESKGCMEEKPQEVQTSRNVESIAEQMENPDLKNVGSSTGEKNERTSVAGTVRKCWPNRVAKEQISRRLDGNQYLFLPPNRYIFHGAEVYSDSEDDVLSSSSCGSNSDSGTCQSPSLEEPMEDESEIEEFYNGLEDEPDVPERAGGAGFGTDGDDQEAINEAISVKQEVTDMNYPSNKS

[3] = target: T3, NAD-dependent protein deacetylase sirtuin-3, mitochondrial (Homo sapiens, UniProt Q9NTG7); experiment: Inhibition of human recombinant SIRT3 assessed as inhibition of substrate deacetylation using Gln-Pro-Lys-Lys- (epsilon acetyl) AMC peptide as substrate in presence of NAD+ measured by fluorescence based analysis
T3 sequence (Q9NTG7 whole entry): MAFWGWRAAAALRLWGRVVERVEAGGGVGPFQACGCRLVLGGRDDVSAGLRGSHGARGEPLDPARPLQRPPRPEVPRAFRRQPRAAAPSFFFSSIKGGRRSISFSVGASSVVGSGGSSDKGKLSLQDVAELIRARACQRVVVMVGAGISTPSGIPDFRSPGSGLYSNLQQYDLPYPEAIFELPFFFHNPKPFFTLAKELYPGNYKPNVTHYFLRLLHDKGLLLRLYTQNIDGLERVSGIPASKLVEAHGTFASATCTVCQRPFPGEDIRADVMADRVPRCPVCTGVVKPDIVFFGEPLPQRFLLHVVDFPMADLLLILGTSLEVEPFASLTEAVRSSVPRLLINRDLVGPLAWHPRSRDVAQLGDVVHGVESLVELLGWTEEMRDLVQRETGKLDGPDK

[4] = target: T4, Bromodomain-containing protein 4 (Homo sapiens, UniProt O60885); experiment: Displacement of SGRG-K(Ac)-GG-K(Ac)-GLG-K(Ac)-GGA-K(Ac)-RHRKVGG-K(Biotin) from Europium chelated human BRD4 bromodomain 1 (49 to 170 residues) measured after 2 hrs by TR-FRET assay
[5] = target: T4, Bromodomain-containing protein 4; experiment: Displacement of SGRG-K(Ac)-GG-K(Ac)-GLG-K(Ac)-GGA-K(Ac)-RHRKVGG-K(Biotin) from Europium chelated human BRD4 bromodomain 2 (342 to 460 residues) measured after 2 hrs by TR-FRET assay
[6] = target: T1, NAD-dependent protein deacetylase sirtuin-2; experiment: Binding affinity to chip-immobilized recombinant human SIRT2 measured after 300 secs by surface plasmon resonance method
[7] = target: T2, NAD-dependent protein deacetylase sirtuin-1; experiment: Binding affinity to chip-immobilized recombinant human SIRT1 measured after 300 secs by surface plasmon resonance method
[8] = target: T3, NAD-dependent protein deacetylase sirtuin-3, mitochondrial; experiment: Binding affinity to chip-immobilized recombinant human SIRT3 measured after 300 secs by surface plasmon resonance method
[9] = target: T5, NAD-dependent protein deacylase sirtuin-5, mitochondrial (Homo sapiens, UniProt Q9NXA8); experiment: Inhibition of human recombinant SIRT5 assessed as inhibition of substrate desuccinylation using Fluor de Lys-Succinyl green peptide as substrate in presence of NAD+ measured by fluorometric assay
T5 sequence (Q9NXA8 whole entry): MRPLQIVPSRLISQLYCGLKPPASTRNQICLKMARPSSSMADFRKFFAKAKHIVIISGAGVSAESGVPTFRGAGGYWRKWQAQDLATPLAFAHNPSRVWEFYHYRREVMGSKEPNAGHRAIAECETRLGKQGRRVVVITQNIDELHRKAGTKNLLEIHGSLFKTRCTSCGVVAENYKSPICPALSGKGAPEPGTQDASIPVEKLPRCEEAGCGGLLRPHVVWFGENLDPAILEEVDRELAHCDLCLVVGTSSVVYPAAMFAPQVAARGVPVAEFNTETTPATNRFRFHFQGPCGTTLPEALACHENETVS

[10] = target: T5, NAD-dependent protein deacylase sirtuin-5, mitochondrial; experiment: Binding affinity to chip-immobilized recombinant human SIRT5 measured after 300 secs by surface plasmon resonance method

SMILES | IC50 [1] | Ki [1] | other results
CC1COc2c(N3CCN(C)CC3)c(F)cc3c(=O)c(C(=O)NCc4ccc(CNC(=O)c5cn6c7c(c(N8CCN(C)CC8)c(F)cc7c5=O)OCC6C)cc4)cn1c23 (stereo not given) | 186 µM | 54 µM | –
O=C1CC(C(=O)NCCCCCCNCC(=O)C2CC3CCC2C3)c2ccccc21 (stereo not given) | 938 µM | 272 µM | IC50 [2]: 78 µM; Ki [2]: 48 µM; IC50 [3]: 621 µM; Ki [3]: 447 µM
CC1COc2c(N3CCN(C)CC3)c(F)cc3c(=O)c(C(=O)NCCCNC(=O)c4cn5c6c(c(N7CCN(C)CC7)c(F)cc6c4=O)OCC5C)cn1c23 (stereo not given) | 303 µM | 88 µM | –
CSCC(=O)N(C)CCCN1c2ccccc2CCc2ccccc21 | – | – | IC50 [4]: 1320 µM; IC50 [5]: 153 µM
CC1COc2c(N3CCN(C)CC3)c(F)cc3c(=O)c(C(=O)NCCOCCOCCOCCNC(=O)CCc4nc(-c5ccncc5)no4)cn1c23 (stereo not given) | 24 µM | 7 µM | Kd [6]: 24 µM
O=C(NCCCCCCNC(=O)c1cccc(-c2cccnc2)c1)c1cccc(-c2cccnc2)c1 | 39 µM | 12 µM | Ki [2]: 73 µM; Kd [6]: 40 µM; Kd [7]: 118 µM
CNC(=O)c1cn2c3c(c(N4CCN(C)CC4)c(F)cc3c1=O)OCC2C (stereo not given) | – | – | IC50 [4]: 1130 µM; IC50 [5]: 321 µM
CC1COc2c(N3CCN(C)CC3)c(F)cc3c(=O)c(C(=O)NCCCCCCNC(=O)CCc4nc(-c5ccncc5)no4)cn1c23 (stereo not given) | 107 µM | 31 µM | –
CC1COc2c(N3CCN(C)CC3)c(F)cc3c(=O)c(C(=O)NCc4ccc(CNC(=O)CCc5nc(-c6ccncc6)no5)cc4)cn1c23 (stereo not given) | 193 µM | 56 µM | –
CC1COc2c(N3CCN(C)CC3)c(F)cc3c(=O)c(C(=O)NCCOCCOCCNC(=O)c4cn5c6c(c(N7CCN(C)CC7)c(F)cc6c4=O)OCC5C)cn1c23 (stereo not given) | 383 µM | 111 µM | –
COc1cc(CC(=O)NCCOCCOCCNC(=O)c2cn3c4c(c(N5CCN(C)CC5)c(F)cc4c2=O)OCC3C)cc(OC)c1OC (stereo not given) | 32 µM | 9 µM | Kd [6]: 32 µM
O=C1CC(C(=O)NCCOCCOCCNCC(=O)C2CC3CCC2C3)c2ccccc21 (stereo not given) | – | – | IC50 [2]: 298 µM; Ki [2]: 183 µM
CC1COc2c(N3CCN(C)CC3)c(F)cc3c(=O)c(C(=O)NCCOCCOCCOCCNC(=O)c4cn5c6c(c(N7CCN(C)CC7)c(F)cc6c4=O)OCC5C)cn1c23 (stereo not given) | 316 µM | 92 µM | –
COc1cc(CC(=O)NCCCCCCNC(=O)c2cccc(-c3cccnc3)c2)cc(OC)c1OC | 44 µM | 13 µM | Ki [2]: 85 µM; Ki [3]: 351 µM; Kd [8]: 488 µM; Kd [6]: 44 µM; Kd [7]: 139 µM
COc1cc(CC(=O)NCCOCCOCCOCCNC(=O)c2cccc(-c3cccnc3)c2)cc(OC)c1OC | 93 µM | 27 µM | –
CNC(=O)CSC | – | – | IC50 [5]: 1160 µM
O=C(NCc1ccc(CNC(=O)c2cccc(-c3cccnc3)c2)cc1)c1cccc(-c2cccnc2)c1 | 91 µM | 26 µM | –
CC1COc2c(N3CCN(C)CC3)c(F)cc3c(=O)c(C(=O)NCCCNC(=O)CCc4nc(-c5ccncc5)no4)cn1c23 (stereo not given) | 52 µM | 15 µM | –

SMILES | IC50 [1] | Ki [1] | other results
COc1cc(CC(=O)NCc2ccc(CNC(=O)c3cccc(-c4cccnc4)c3)cc2)cc(OC)c1OC | 25 µM | 7 µM | Ki [3]: 282 µM; Kd [8]: 392 µM; Kd [6]: 25 µM
CC1COc2c(N3CCN(C)CC3)c(F)cc3c(=O)c(C(=O)NCCOCCOCCNC(=O)CCc4nc(-c5ccncc5)no4)cn1c23 (stereo not given) | 186 µM | 54 µM | –
CN(CCCN1c2ccccc2CCc2ccccc21)C(=O)CCCCCNC(=O)C[C@@H](Cc1ccccc1)NC(=O)OC(C)(C)C | – | – | IC50 [9]: 183 µM; Ki [9]: 122 µM; Kd [10]: 2470 nM
CSCC(=O)NCCCCCC(=O)N(C)CCCN1c2ccccc2CCc2ccccc21 | – | – | IC50 [4]: 972 µM; IC50 [5]: 231 µM
O=C1CC(C(=O)NCCCNCC(=O)C2CC3CCC2C3)c2ccccc21 (stereo not given) | – | – | IC50 [2]: 330 µM; Ki [2]: 203 µM
COc1cc(CC(=O)NCc2ccc(CNC(=O)c3cn4c5c(c(N6CCN(C)CC6)c(F)cc5c3=O)OCC4C)cc2)cc(OC)c1OC (stereo not given) | 985 µM | 286 µM | –
O=C(NCCOCCOCCOCCNC(=O)c1cccc(-c2cccnc2)c1)c1cccc(-c2cccnc2)c1 | 22 µM | 6 µM | Ki [2]: 35 µM; Ki [3]: 214 µM; Kd [8]: 297 µM; Kd [6]: 22 µM; Kd [7]: 56 µM
COc1cc(CC(=O)NCCOCCOCCOCCNC(=O)c2cn3c4c(c(N5CCN(C)CC5)c(F)cc4c2=O)OCC3C)cc(OC)c1OC (stereo not given) | 7 µM | 2 µM | Kd [6]: 7 µM
COc1cc(CC(=O)NCCOCCOCCNC(=O)c2cccc(-c3cccnc3)c2)cc(OC)c1OC | 97 µM | 28 µM | –
COc1cc(CC(=O)NCCCNC(=O)c2cn3c4c(c(N5CCN(C)CC5)c(F)cc4c2=O)OCC3C)cc(OC)c1OC (stereo not given) | 39 µM | 11 µM | Kd [6]: 39 µM
COc1cc(CC(=O)NCCCNC(=O)c2cccc(-c3cccnc3)c2)cc(OC)c1OC | 299 µM | 87 µM | –
CC1COc2c(N3CCN(C)CC3)c(F)cc3c(=O)c(C(=O)N(C)CCCN4c5ccccc5CCc5ccccc54)cn1c23 (stereo not given) | – | – | IC50 [4]: 227 µM; IC50 [5]: 41 µM
O=C1CC(C(=O)NCc2ccc(CNCC(=O)C3CC4CCC3C4)cc2)c2ccccc21 (stereo not given) | – | – | IC50 [2]: 195 µM; Ki [2]: 120 µM
O=C(NCCOCCOCCNC(=O)c1cccc(-c2cccnc2)c1)c1cccc(-c2cccnc2)c1 | 99 µM | 29 µM | –
COc1cc(CC(=O)NCCCCCCNC(=O)c2cn3c4c(c(N5CCN(C)CC5)c(F)cc4c2=O)OCC3C)cc(OC)c1OC (stereo not given) | 33 µM | 9 µM | Kd [6]: 33 µM
CC1COc2c(N3CCN(C)CC3)c(F)cc3c(=O)c(C(=O)NCCCCCC(=O)N(C)CCCN4c5ccccc5CCc5ccccc54)cn1c23 (stereo not given) | – | – | IC50 [4]: 107 µM; IC50 [5]: 30 µM
O=C1CC(C(=O)NCCOCCOCCOCCNCC(=O)C2CC3CCC2C3)c2ccccc21 (stereo not given) | – | – | IC50 [2]: 1050 µM; Ki [2]: 645 µM
